ChEMBL document CHEMBL5291721, “A preclinical secondary pharmacology resource illuminates target-adverse drug reaction associations of marketed drugs” (Nat Commun, 2023)

Key:
[1] = target: T1, Equilibrative nucleoside transporter 1 (Homo sapiens, UniProt Q99808)
T1 sequence (Q99808 whole entry): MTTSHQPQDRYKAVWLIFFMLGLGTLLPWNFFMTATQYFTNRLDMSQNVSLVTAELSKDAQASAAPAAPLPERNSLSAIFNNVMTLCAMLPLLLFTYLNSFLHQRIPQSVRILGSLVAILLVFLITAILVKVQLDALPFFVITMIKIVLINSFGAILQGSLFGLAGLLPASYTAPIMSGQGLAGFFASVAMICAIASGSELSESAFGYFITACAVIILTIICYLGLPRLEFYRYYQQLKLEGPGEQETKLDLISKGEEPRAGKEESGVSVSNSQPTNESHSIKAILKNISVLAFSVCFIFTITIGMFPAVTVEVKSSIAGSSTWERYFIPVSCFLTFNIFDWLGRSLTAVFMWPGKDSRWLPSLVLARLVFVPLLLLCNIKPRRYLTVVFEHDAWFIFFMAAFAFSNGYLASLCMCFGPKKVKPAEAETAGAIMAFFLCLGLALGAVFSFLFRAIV

B2 bradykinin receptor = target: T2, B2 bradykinin receptor (Homo sapiens, UniProt P30411)
T2 sequence (P30411 whole entry): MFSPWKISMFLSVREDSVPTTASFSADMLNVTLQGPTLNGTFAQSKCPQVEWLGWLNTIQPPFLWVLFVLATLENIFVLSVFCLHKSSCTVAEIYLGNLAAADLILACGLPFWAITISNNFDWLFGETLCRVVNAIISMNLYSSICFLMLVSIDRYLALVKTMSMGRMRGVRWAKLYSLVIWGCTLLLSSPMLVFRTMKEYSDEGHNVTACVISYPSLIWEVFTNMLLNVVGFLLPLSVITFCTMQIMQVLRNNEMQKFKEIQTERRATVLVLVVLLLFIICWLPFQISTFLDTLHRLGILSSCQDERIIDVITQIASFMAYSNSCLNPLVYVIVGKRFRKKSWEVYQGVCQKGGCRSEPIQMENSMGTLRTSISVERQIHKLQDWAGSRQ

Glucocorticoid receptor = target: T3, Glucocorticoid receptor (Homo sapiens, UniProt P04150)
T3 sequence (P04150 whole entry): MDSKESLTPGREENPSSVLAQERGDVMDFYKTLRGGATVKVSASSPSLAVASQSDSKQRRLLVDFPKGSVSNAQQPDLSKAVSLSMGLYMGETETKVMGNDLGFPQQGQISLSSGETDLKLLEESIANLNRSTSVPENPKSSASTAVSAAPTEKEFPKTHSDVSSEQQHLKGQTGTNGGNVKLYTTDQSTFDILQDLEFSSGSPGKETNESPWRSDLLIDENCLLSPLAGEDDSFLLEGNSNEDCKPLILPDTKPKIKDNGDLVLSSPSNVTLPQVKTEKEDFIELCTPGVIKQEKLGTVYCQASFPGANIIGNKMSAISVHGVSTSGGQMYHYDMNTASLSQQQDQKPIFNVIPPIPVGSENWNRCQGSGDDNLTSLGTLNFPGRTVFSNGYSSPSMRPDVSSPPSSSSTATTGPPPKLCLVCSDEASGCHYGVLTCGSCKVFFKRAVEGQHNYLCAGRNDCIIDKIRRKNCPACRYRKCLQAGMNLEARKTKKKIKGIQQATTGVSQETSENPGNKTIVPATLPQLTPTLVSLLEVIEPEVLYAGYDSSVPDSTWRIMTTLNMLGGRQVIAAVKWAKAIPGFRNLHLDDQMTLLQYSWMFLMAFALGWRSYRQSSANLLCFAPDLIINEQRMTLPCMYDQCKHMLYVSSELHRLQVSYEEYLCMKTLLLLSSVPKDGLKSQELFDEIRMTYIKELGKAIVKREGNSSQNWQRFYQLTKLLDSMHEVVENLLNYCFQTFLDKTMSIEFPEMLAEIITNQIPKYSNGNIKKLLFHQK

[2] = target: cGMP-inhibited 3',5'-cyclic phosphodiesterase 3A (Homo sapiens, UniProt Q14432); format: functional
cGMP-inhibited 3',5'-cyclic phosphodiesterase 3A, sequence (Q14432 whole entry): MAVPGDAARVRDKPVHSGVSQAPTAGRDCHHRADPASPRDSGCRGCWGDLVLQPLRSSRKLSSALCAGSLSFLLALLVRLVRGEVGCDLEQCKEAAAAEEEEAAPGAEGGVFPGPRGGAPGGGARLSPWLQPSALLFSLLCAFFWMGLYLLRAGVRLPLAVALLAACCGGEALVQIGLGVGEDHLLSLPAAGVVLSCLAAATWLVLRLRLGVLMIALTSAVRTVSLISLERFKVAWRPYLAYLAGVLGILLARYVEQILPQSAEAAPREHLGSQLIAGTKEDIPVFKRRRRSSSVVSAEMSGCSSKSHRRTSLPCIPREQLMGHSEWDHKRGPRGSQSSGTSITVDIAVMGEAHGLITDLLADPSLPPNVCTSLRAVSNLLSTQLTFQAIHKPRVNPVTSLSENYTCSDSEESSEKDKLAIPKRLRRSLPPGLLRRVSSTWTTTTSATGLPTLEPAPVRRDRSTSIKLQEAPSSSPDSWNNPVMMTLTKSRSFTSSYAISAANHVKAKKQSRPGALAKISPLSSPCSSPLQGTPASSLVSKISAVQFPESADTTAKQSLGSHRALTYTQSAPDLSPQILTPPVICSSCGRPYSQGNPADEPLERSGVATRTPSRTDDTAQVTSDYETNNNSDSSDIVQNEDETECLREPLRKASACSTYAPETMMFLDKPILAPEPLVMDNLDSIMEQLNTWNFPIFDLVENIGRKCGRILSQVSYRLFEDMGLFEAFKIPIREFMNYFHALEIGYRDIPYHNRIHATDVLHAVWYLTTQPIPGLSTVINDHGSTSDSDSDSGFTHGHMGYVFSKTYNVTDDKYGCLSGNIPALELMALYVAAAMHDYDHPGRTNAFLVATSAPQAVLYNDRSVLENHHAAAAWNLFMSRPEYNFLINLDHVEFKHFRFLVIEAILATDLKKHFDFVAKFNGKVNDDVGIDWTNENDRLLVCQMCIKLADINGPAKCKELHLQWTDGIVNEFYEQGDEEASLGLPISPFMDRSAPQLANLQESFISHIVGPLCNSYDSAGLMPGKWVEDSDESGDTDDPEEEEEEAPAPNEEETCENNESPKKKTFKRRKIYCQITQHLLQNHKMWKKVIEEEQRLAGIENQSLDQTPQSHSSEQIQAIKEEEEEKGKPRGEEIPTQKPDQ

[3] = target: T4, Muscarinic acetylcholine receptor M2 (Homo sapiens, UniProt P08172); format: functional, cell-based
T4 sequence (P08172 whole entry): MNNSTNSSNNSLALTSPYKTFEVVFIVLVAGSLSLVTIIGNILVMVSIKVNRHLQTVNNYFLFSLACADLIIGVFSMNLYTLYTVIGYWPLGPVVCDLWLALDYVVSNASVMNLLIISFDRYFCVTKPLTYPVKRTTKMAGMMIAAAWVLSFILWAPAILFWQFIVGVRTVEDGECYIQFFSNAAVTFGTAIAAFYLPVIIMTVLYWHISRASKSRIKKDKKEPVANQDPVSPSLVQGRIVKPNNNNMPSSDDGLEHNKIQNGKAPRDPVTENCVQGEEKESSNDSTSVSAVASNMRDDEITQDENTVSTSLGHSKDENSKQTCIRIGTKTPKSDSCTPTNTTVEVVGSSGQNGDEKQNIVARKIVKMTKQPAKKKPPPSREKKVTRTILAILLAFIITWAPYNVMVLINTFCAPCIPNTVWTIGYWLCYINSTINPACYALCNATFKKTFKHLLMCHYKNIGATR

[4] = target: 3',5'-cyclic-AMP phosphodiesterase 4D (Homo sapiens, UniProt Q08499); format: functional
3',5'-cyclic-AMP phosphodiesterase 4D, sequence (Q08499 whole entry): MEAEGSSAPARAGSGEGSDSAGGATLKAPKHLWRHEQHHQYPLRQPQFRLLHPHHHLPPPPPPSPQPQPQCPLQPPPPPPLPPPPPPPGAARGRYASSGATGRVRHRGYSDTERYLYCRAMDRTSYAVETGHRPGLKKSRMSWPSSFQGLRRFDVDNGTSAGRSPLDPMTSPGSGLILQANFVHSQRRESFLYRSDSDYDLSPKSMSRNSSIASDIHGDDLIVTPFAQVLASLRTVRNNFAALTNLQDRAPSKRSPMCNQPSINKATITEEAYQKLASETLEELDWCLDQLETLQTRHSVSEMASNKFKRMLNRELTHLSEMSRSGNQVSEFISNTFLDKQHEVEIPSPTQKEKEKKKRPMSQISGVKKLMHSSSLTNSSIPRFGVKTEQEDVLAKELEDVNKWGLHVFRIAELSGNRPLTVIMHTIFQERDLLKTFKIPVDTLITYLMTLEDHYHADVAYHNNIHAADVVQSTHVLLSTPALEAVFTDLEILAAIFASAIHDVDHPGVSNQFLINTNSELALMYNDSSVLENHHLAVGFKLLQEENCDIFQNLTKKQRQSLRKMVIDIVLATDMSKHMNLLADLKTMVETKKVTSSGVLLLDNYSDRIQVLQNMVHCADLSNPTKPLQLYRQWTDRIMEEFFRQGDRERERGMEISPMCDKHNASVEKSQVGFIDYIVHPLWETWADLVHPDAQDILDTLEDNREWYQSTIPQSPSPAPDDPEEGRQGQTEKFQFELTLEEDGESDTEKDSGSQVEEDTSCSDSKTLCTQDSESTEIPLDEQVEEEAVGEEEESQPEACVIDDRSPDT

[5] = target: T5, Alpha-2A adrenergic receptor (Homo sapiens, UniProt P08913); format: functional, cell-based
T5 sequence (P08913 whole entry): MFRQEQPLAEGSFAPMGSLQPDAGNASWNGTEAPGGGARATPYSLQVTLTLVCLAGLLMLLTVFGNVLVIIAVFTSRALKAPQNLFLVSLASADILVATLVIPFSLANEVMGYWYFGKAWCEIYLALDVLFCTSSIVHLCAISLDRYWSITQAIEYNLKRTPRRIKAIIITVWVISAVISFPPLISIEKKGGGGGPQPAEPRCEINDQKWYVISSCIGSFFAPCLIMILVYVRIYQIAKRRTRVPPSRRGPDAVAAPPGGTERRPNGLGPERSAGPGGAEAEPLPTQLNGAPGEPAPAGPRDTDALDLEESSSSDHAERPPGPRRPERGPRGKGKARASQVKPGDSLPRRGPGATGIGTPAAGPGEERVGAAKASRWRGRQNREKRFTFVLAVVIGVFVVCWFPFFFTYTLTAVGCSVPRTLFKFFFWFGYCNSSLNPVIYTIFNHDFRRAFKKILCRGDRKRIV

Histamine H3 receptor = Histamine H3 receptor (Homo sapiens, UniProt Q9Y5N1)
Histamine H3 receptor, sequence (Q9Y5N1 whole entry): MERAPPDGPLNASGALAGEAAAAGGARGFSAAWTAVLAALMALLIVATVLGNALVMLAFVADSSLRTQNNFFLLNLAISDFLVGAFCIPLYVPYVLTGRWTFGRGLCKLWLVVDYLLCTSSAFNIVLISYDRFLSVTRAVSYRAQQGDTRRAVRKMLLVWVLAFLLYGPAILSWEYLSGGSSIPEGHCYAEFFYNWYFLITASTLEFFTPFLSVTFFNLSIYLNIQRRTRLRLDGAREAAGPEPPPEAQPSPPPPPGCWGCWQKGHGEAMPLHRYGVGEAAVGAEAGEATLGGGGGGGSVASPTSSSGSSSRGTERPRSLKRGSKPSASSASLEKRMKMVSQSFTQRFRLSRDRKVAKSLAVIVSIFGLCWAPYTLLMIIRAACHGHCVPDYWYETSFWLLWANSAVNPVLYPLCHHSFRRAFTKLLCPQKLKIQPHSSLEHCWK

Mu-type opioid receptor = Mu-type opioid receptor (Homo sapiens, UniProt P35372); experiment: biochemical; format: functional
Mu-type opioid receptor, sequence (P35372 whole entry): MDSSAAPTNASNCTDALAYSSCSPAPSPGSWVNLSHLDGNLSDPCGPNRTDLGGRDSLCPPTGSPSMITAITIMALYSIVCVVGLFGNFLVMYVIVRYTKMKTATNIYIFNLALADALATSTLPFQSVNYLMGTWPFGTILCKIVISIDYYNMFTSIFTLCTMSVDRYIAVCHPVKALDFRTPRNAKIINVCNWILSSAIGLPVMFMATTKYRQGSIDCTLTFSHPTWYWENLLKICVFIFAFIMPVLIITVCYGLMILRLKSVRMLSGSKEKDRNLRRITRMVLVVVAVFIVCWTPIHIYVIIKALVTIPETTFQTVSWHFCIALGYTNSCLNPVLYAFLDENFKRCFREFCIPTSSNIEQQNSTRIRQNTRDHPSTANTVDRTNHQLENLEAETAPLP
Further: assay procedure not described here.

SMILES | AC50 [1] [µM] | AC50 (B2 bradykinin receptor) [µM] | AC50 (Glucocorticoid receptor) [µM] | AC50 [2] [µM] | AC50 [3] [µM] | AC50 [4] [µM] | AC50 [5] [µM] | AC50 (Histamine H3 receptor) [µM] | AC50 (Mu-type opioid receptor) [µM]
Nc1nc2ccc(OC(F)(F)F)cc2s1 [RILUZOLE] | > 30 | > 30 | > 30 | > 30 | > 30 | 14 | > 30 | > 30 | > 30
O=C1CN=C(c2ccccc2)c2cc(Cl)ccc2N1CC(F)(F)F [HALAZEPAM] | > 30 | > 30 | > 30 | > 30 | > 30 | > 30 | > 30 | > 30 | 1.2
C[C@]12CCC(=O)C=C1CC[C@@H]1[C@@H]2CC[C@@]2(C)[C@H]1CC[C@]2(C)O [METHYLTESTOSTERONE] | > 30 | > 30 | 0.44 | > 30 | > 30 | > 30 | > 30 | > 30 | > 30
CC(=O)O[C@@]12CO[C@@H]1C[C@H](O)[C@@]1(C)C(=O)[C@H](O)C3=C(C)[C@@H](OC(=O)[C@H](O)[C@@H](NC(=O)OC(C)(C)C)c4ccccc4)C[C@@](O)([C@@H](OC(=O)c4ccccc4)[C@H]21)C3(C)C [DOCETAXEL ANHYDROUS] | > 30 | > 30 | > 30 | > 30 | > 30 | > 30 | > 30 | > 30 | > 30
C[C@H]1C[C@@H]2[C@H]([C@@H](O)C[C@@]3(C)[C@H]2CC[C@]3(O)C(=O)COC(=O)CCC(=O)O)[C@@]2(C)C=CC(=O)C=C12 [METHYLPREDNISOLONE HEMISUCCINATE] | > 30 | > 30 | 0.67 | > 30 | > 30 | > 30 | > 30 | > 30 | > 30
CCOC(=O)[C@H](CCc1ccccc1)N[C@H]1CCCN2CCC[C@@H](C(=O)O)N2C1=O [CILAZAPRIL] | > 30 | > 30 | > 30 | > 30 | > 30 | > 30 | > 30 | > 30 | > 30
COc1ccc2c(c1)c(CC(=O)OCC(=O)O)c(C)n2C(=O)c1ccc(Cl)cc1 [ACEMETACIN] | > 30 | > 30 | > 30 | > 30 | > 30 | > 30 | > 30 | > 30 | > 30
Cc1cc2c(OCC(CNC(C)(C)C)OC(=O)c3ccccc3)cccc2[nH]1 (centres undefined) [BOPINDOLOL] | > 30 | > 30 | > 30 | > 30 | > 30 | > 30 | > 30 | > 30 | > 30
CCCOc1ccc(C(=O)OCCN(CC)CC)cc1N [PROPARACAINE] | > 30 | > 30 | > 30 | > 30 | > 30 | > 30 | > 30 | 1.3 | > 30
CCCCC(C)(O)C/C=C/[C@H]1[C@H](O)CC(=O)[C@@H]1CCCCCCC(=O)OC (some centres undefined) [MISOPROSTOL] | > 30 | > 30 | > 30 | > 30 | > 30 | > 30 | > 30 | > 30 | > 30
Cc1c(Cl)cccc1Nc1ccccc1C(=O)O [TOLFENAMIC ACID] | – | > 30 | > 30 | > 30 | > 30 | > 30 | 20 | > 30 | > 30
Nc1ncnc2c1ncn2[C@@H]1O[C@H](COP(=O)(O)O)[C@@H](O)[C@H]1O [ADENOSINE PHOSPHATE] | – | > 30 | > 30 | 16 | > 30 | 14 | > 30 | > 30 | > 30
CCCCCCCCCCCC[N+](C)(C)CCOc1ccccc1 [DOMIPHEN] | > 30 | > 30 | 18 | > 30 | 14 | 12 | – | 12 | > 30
CC1=CC(=O)c2ccccc2C1=O [MENADIONE] | > 10 | > 10 | > 30 | > 30 | > 10 | > 30 | > 10 | – | > 30
CCCCCCCCOc1ccccc1C(=O)Nc1ccc(C(=O)OCC[N+](C)(CC)CC)cc1 [OTILONIUM BROMIDE] | 17 | > 30 | 11 | 20 | 16 | 2.5 | – | 17 | > 30
CN1CCCN=C1COC(=O)C(O)(c1ccccc1)C1CCCCC1 (centres undefined) [OXYPHENCYCLIMINE] | 27.5 | > 10 | > 10 | > 30 | > 10 | > 30 | > 10 | – | > 30
CC(C)[N+](C)(CCC(C(N)=O)(c1ccccc1)c1ccccc1)C(C)C [ISOPROPAMIDE] | > 10 | > 10 | > 10 | > 30 | > 10 | > 30 | > 10 | – | > 30
COc1ccc(C(=O)N2CCN(c3ccc4c(c3)CCC(=O)N4)CC2)cc1OC [VESNARINONE] | – | > 30 | 8 | 8.46 | > 30 | > 30 | > 30 | > 30 | > 30
